Assay results reported in patent US9913811B2, “Hydroxynaphthoquinone compounds for treatment of non-small cell lung cancer” (Macau University of Science and Technology, priority 2016, dated 2018).

What was measured:
Assay type in all cases: cell-based
H1650 cells [1] = assay: ROS generation, H1650; conditions: 4 μM, 30 min treatment
Description: (§1) Apoptosis assay and analysis with flow cytometer was performed as described in Example 1B with H1650 and H1975 cells and treatment with 4 μM of the compound of Formula (IIa) for 30 min in the presence or absence of N-acetylcystein (NAC) or treatment with DMSO (control, negative control). FIG. 4A to 4D show fluorescence images of H1650 cells and FIG. 5A to 5D show fluorescence images of H1975 cells.
(§2) ROS generation was considered as the direct cause of apoptosis induced by the compound of Formula (IIa). After 30 min treatment of the H1650 and H1975 cells, the intensity of ROS increased more than 10-fold.

[2] = test system: cleaved Caspase-3 and cleaved PARP in H1975 cells; assay: Western blot of cleaved caspase-3 and cleaved PARP, H1975; conditions: 24 h
Description: (§3) The H1650 or H1975 cells were planted on 6-well plates, allowed to attach for 24 h, and treated with 4 μM of the compound of Formula (IIa) with or without NAC (10 mM) for 24 h. Cells were washed twice with cold PBS then lysed in RIPA lysis buffer containing protease and phosphatase inhibitors. Protein concentration of the cell lysates was measured using the Bio-Rad protein Assay kit (Bio-Rad, 7 Philadelphia, Pa., USA). After equalizing the protein concentrations of the samples, 5× laemmli buffer was added and the samples were boiled at 100° C. for 5 min. Equal amounts of protein samples (30 μg) were subjected to SDS-PAGE of a 10% gel. The separated proteins were transferred to a nitrocellulose (NC) membrane, which was then exposed to 5% non-fat dried milk in TBS containing 0.1% Tween (0.1% TBST) for 1 h at room temperature, followed by overnight incubation at 4° C. with primary antibodies. After washing three times by TBST (5 mins/time), the membranes were incubated for 1 h at room temperature with secondary fluorescent antibodies (1:10000 dilutions) to rabbit or mouse. The signal intensity of the membranes was detected by an LI-COR Odessy scanner (Belfast, Me., USA).

H1975 cells [3] = assay: Annexin-V/PI apoptosis assay by flow cytometry, H1975
Description: (§4) Apoptosis assay was performed on gefitinib-resistant H1650 and H1975 cells. The cells (1.0×10^5 cells/well) were allowed to attach to a 6-well plate for 24 h, and the cells were treated with the various concentrations of the compound of Formula (IIa) for additional 24 h. At the end of incubation, the cells were harvested by trypsinization and washed twice with ice-cold PBS. After centrifugation and removal of the supernatants, cell pellets were resuspended in 100 μL 1×Annexin-binding buffer, 2 μL Annexin-V FITC and 2 μL PI (100 μg/ml) were added and incubated in the dark at room temperature for 15 min before further addition of 400 μL of 1×Annexin-binding buffer. The stained cells were analyzed quantitatively using a flow cytometer (BD Biosciences, San Jose, Calif., USA). Data were analyzed by Flow Jo software. FIG. 2A to 2E show fluorescence images of H1650 cells and FIG. 3A to 3E show fluorescence images of H1975 cells having been treated with the compound of Formula (IIa) at 1 μM, 2 μM, 3 μM and 4 μM; and DMSO (control, negative control).
(§5) Apoptosis assay and analysis with flow cytometer was performed as described in Example 1B with H1650 and H1975 cells and treatment with 4 μM of the compound of Formula (IIa) for 30 min in the presence or absence of N-acetylcystein (NAC) or treatment with DMSO (control, negative control). […]

CCD-19LU = assay: MTT cytotoxicity assay, non-cancerous lung fibroblast cells; conditions: 24 h treatment
Description: To show the highly cytotoxic properties of the present compound of Formula (IIa), H1650, HCC827 and H1975 NSCLC cells and non-cancerous lung fibroblast cells (CCD-19LU) were treated with the compound of Formula (IIa) and respective effects were observed. H1650 cells are adenocarcinoma cells harboring an E746-A750del deletion in exon 19 and other driver mutation genes which lead to a resistance against gefitinib. HCC827 cells are adenocarcinoma cells harboring high level EGFR amplification and an E746-A750del deletion in exon 19 without gefitinib-resistance. H1975 cells are adenocarcinoma cells harboring L858R substitution in exon 21 and a T790M substitution in exon 20 which is directly associated with resistance against gefitinib. The cells were obtained from the American Type Culture Collection (ATCC) and cultured in environment of 5% CO2 at 37° C. in RPMI-1640 medium supplemented with 10% fetal bovine serum (FBS), 100 units/mL penicillin, and 100 μg/mL streptomycin. The compound of Formula (IIa) was dissolved in DMSO. […] The absorbance was measured at 570 nm by a microplate reader (Tecan, Morrisville, N.C., USA).
The cell viability was calculated relative to untreated controls, with results based on at least three independent experiments.

H1650 cells [4] = assay: Annexin-V/PI apoptosis assay by flow cytometry, H1650
Description: as §4, §5

H1975 cells [5] = assay: ROS generation, H1975; conditions: 4 μM, 30 min treatment
Description: as §1, §2

[6] = test system: cleaved Caspase-3 and cleaved PARP in H1650 cells; assay: Western blot of cleaved caspase-3 and cleaved PARP, H1650; conditions: 24 h
Description: as §3

EGFR = target: T1, EGFR (Homo sapiens, UniProt P00533, L858R/T790M); assay: Western blot of EGFR phosphorylation, H1975; conditions: H1975 cells, 1, 2, 3, 4 μM, 2 h
T1 construct: H1975 cells were planted on 6-well plate, allowed to attach for 24 h, and treated; host or cells: H1975 NSCLC adenocarcinoma cells
Description: H1975 cells were planted on 6-well plate, allowed to attach for 24 h, and treated with the various concentrations of the compound of Formula (Ic) for 2 h. Cells were washed twice with cold PBS then lysed in RIPA lysis buffer containing protease and phosphatase inhibitors. Protein concentration of the cell lysates was measured using the Bio-Rad protein Assay kit (Bio-Rad, 7 Philadelphia, Pa., USA). After equalizing the protein concentrations of the samples, 5× laemmli buffer was added and the samples were boiled at 100° C. for 5 min. Equal amounts of protein samples (30 μg) were subjected to SDS-PAGE of a 10% gel. The separated proteins were transferred to a nitrocellulose (NC) membrane, which was then exposed to 5% non-fat dried milk in TBS containing 0.1% Tween (0.1% TBST) for 1 h at room temperature, followed by overnight incubation at 4° C. with primary antibodies. After washing three times by TBST (5 mins/time), the membranes were incubated for 1 h at room temperature with the secondary fluorescent antibodies (1:10000 dilutions) to rabbit or mouse. The signal intensity of the membranes was detected by an LI-COR Odessy scanner (Belfast, Me., USA). Actin was used as the loading control for normalization.

[7] = 4 μM Formula (IIa) with 10 mM NAC

Q: Which “increase of intensity of ROS” value (H1650 cells [1]) does the source give for CC(C)=CC[C@@H](O)C1=CC(=O)c2c(O)ccc(O)c2C1=O [Formula (IIa), shikonin] here?
A: more than 10 fold

Q: What about the “cleaved Caspase-3 and cleaved PARP expression” value ([2]; 4 μM) of the same molecule?
A: increase in cleaved Caspase-3 and cleaved Poly(ADP-ribose) Polymerase (PARP)

Q: And the induction of apoptosis (H1975 cells [3]; H1975 cells, 1, 2, 3, 4 μM, 24 h)?
A: significantly induced apoptosis

Q: What about the “cytotoxicity on non-cancerous lung fibroblast cells compared with NSCLC cells” value (CCD-19LU) of the same molecule?
A: much lower cytotoxicity

Q: What about the induction of apoptosis (H1650 cells [4]; H1650 cells, 1, 2, 3, 4 μM, 24 h) of the same molecule?
A: significantly induced apoptosis

Q: And the “increase of intensity of ROS” value (H1975 cells [5])?
A: more than 10 fold

Q: What about the “cleaved Caspase-3 and cleaved PARP expression” value ([6]; 4 μM) of the same molecule?
A: increase in cleaved Caspase-3 and cleaved Poly(ADP-ribose) Polymerase (PARP)

Q: And the “EGFR phosphorylation (tyrosine 1068, 1173, 1045)” value (EGFR)?
A: suppress EGFR phosphorylation

Q: With CC(=O)N[C@@H](CS)C(=O)O [NAC, N-acetylcystein, reference compound] as the molecule, how does the “effect of NAC on apoptosis (cleaved Caspase-3, cleaved PARP) induced by Formula (IIa)” value [2, 7] read?
A: blocked

Q: What about the “effect of NAC on apoptosis induced by the compound of Formula (IIa)” value (H1975 cells [3]; H1975 cells, 4 μM Formula (IIa) in presence of NAC) of the same molecule?
A: completely blocked the apoptosis

Q: And the “effect of NAC on apoptosis induced by the compound of Formula (IIa)” value (H1650 cells [4]; H1650 cells, 4 μM Formula (IIa) in presence of NAC)?
A: completely blocked the apoptosis

Q: And the “effect of NAC on apoptosis (cleaved Caspase-3, cleaved PARP) induced by Formula (IIa)” value [6, 7]?
A: blocked
